Data from patent US6818643B1, “Neurotrophic bicyclic diamides” (Bristol-Myers Squibb Company, priority 1999, dated 2004).
Where two headings read alike, the source gives them in different places.

Molecular target: FKBP12 (Homo sapiens, UniProt P62942)
Assay: Fluorescence Polarization (FP) Assay of FKBP12 Binding
Conditions: for inhibition at 1 µM: read-out: % FP inhibition at 1 μM; for Ki: rotamase Ki derived from FP assay
Method: Fluorescence Polarization (FP) Assay of FKBP12 Binding
The buffer (25 mM HEPES, 100 mM sodium chloride, pH 7.5) with pre-mixed enzyme and fluorescent ligand is distributed into wells (190 μL/well). Inhibitors are added as 10 μL of a 10% dimethylsulfoxide solution in the same buffer. FP is measured with an excitation wavelength of 485 nm and emission wavelength of 520 nm.

[1] = Table 2, 1 μM compound, 100 nM fluorescent ligand, 200 nM FKBP12
[2] = Table 1, 1 μM compound, 100 nM fluorescent ligand, 200 nM FKBP12

FKBP12, sequence (P62942 whole entry, species assumed): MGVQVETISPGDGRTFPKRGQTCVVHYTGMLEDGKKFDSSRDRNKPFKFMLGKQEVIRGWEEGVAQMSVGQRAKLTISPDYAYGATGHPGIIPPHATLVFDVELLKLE

Row | SMILES | inhibition at 1 µM [2] | Ki (Table 1) | other results
1 | COc1cc(C(F)(F)C(=O)N2C3CCC2C(=O)N(CC(CCCc2ccccc2)CCCc2ccccc2)C3)cc(OC)c1OC [Example 33, (1S,5R)-8-(3,4,5-Trimethoxyphenyl)difluoroacetyl-3,8-diaza-3-[5-phenyl-2-(3-phenyl-propyl)pentyl]bicyclo[3.2.1]-octan-2-one] |  |  | inhibition at 1 µM [1]: 7%
2 | COc1cc(CCCN2C[C@H]3CC[C@@H](C2=O)N3C(=O)C(=O)c2cc(OC)c(OC)c(OC)c2)cc(OC)c1OC [Example 6, (1S,5R)-8-(3,4,5-Trimethoxyphenyl)oxalyl-3,8-diaza-3-[3-(3,4,5-trimethoxyphenyl)propyl]bicyclo[3.2.1]octan-2-one] | 47% | 242 nM | 
3 | COc1ccc(CCCN2C[C@H]3CC[C@@H](C2=O)N3C(=O)C(=O)c2cc(OC)c(OC)c(OC)c2)cc1OC [Example 3, (1S,5R)-8-(3,4,5-Trimethoxyphenyl)oxalyl-3,8-diaza-3-[3-(3,4-dimethoxyphenyl)propyl]bicyclo[3.2.1]octan-2-one] | 26% | 380 nM | 
4 | COc1ccc(CCCC(CCCc2ccc(OC)c(OC)c2)CN2C[C@H]3CC[C@@H](C2=O)N3C(=O)C(=O)c2cc(OC)c(OC)c(OC)c2)cc1OC [Example 12, (1S,5R)-8-(3,4,5-Trimethoxyphenyl)oxalyl-3,8-diaza-3-[5-(3,4-dimethoxyphenyl)-2-(3-(3,4-dimethoxyphenyl)propyl)pentyl]bicyclo[3.2.1]octan-2-one] |  |  | Ki (Table 2): 47 nM
5 | COc1ccc(CCCC(CCCc2ccc(OC)c(OC)c2)CN2CC3CCCC(C2=O)N3C(=O)C(=O)c2cc(OC)c(OC)c(OC)c2)cc1OC (stereo not shown) [Example 24, 9-(3,4,5-Trimethoxyphenyl)oxalyl-3,9-diaza-3-[5-(3,4-dimethoxyphenyl)-2-(3-(3,4-dimethoxy-phenyl)propyl)pentyl]bicyclo-[3.3.1]nonan-2-one] |  |  | Ki (Table 2): 21 nM
6 | COc1cc(C(=O)C(=O)N2C3CCC2C(=O)N(CCCOc2cccnc2)C3)cc(OC)c1OC [Example 8, (1S,5R)-8-(3,4,5-Trimethoxyphenyl)oxalyl-3,8-diaza-3-(3-(3-pyridyloxy)propyl)-bicyclo[3.2.1]octan-2-one] | 98% |  | 
7 | COc1ccc(CCC(Cc2ccc(OC)c(OC)c2)CN2C[C@H]3CC[C@@H](C2=O)N3C(=O)C(=O)c2cc(OC)c(OC)c(OC)c2)cc1OC (stereo partly drawn) [Example 13, (1S,5R)-8-(3,4,5-Trimethoxyphenyl)oxalyl-3,8-diaza-3-[4-(3,4-dimethoxyphenyl)-2-((3,4-dimethoxyphenyl)methyl)butyl]bicyclo[3.2.1]octan-2-one] |  |  | Ki (Table 2): 122 nM
8 | COc1cc(CCCN2C[C@H]3CC[C@@H](C2=O)N3C(=O)C(F)(F)c2cc(OC)c(OC)c(OC)c2)cc(OC)c1OC [Example 31, (1S,5R)-8-(3,4,5-Trimethoxyphenyl)difluoroacetyl-3,8-diaza-3-[3-(3,4,5-trimethoxyphenyl)propyl]bicyclo[3.2.1]octan-2-one] |  | 598 nM | inhibition at 1 µM: 19%
9 | COc1cc(C(=O)C(=O)N2[C@@H]3CC[C@H]2C(=O)N(CCCc2ccccc2)C3)cc(OC)c1OC [Example 1, (1S,5R)-8-(3,4,5-Trimethoxyphenyl)oxalyl-3,8-diaza-3-(3-phenylpropyl)bicyclo[3.2.1]octan-2-one] | 34% | 699 nM | 
10 | COc1cc(C(=O)C(=O)N2C3CCCC2C(=O)N(CC(CCCc2ccccc2)CCCc2ccccc2)C3)cc(OC)c1OC (stereo not shown) [Example 22, 9-(3,4,5-Trimethoxyphenyl)oxalyl-3,9-diaza-3-[5-phenyl-2-(3-phenylpropyl)pentyl]bicyclo[3.3.1]nonan-2-one] |  |  | inhibition at 1 µM [1]: 17%
11 | COc1ccc(CCCN2CC3CCCC(C2=O)N3C(=O)C(=O)c2cc(OC)c(OC)c(OC)c2)cc1OC (stereo not shown) [Example 16, 9-(3,4,5-Trimethoxyphenyl)oxalyl-3,9-diaza-3-[3-(3,4-dimethoxyphenyl)propyl]bicyclo[3.3.1]nonan-2-one] | 76% | 150 nM | 
12 | COc1ccc(CCC(Cc2ccc(OC)c(OC)c2)CN2CC3CCCC(C2=O)N3C(=O)C(=O)c2cc(OC)c(OC)c(OC)c2)cc1OC (stereo not shown) [Example 25, 9-(3,4,5-Trimethoxyphenyl)oxalyl-3,9-diaza-3-[4-(3,4-dimethoxyphenyl)-2-((3,4-dimethoxy-phenyl)methyl)butyl]bicyclo-[3.3.1]nonan-2-one] |  |  | Ki (Table 2): 18 nM
13 | COc1cc(CCCN2CC3CCCC(C2=O)N3C(=O)C(=O)c2cc(OC)c(OC)c(OC)c2)cc(OC)c1OC (stereo not shown) [Example 15, 9-(3,4,5-Trimethoxyphenyl)oxalyl-3,9-diaza-3-[3-(3,4,5-trimethoxyphenyl)propyl]bicyclo[3.3.1]nonan-2-one] | 44% | 100 nM | 
14 | COc1cc(C(=O)C(=O)N2C3CCCC2C(=O)N(CCCCc2ccccc2)C3)cc(OC)c1OC (stereo not shown) [Example 19, 9-(3,4,5-Trimethoxyphenyl)oxalyl-3,9-diaza-3-(4-phenylbutyl)bicyclo[3.3.1]nonan-2-one] |  | 85 nM | 
15 | COc1cc(C(=O)C(=O)N2C3CCCC2C(=O)N(CCCCCc2ccccc2)C3)cc(OC)c1OC (stereo not shown) [Example 20, 9-(3,4,5-Trimethoxyphenyl)oxalyl-3,9-diaza-3-(5-phenylpentyl)bicyclo[3.3.1]nonan-2-one] |  | 152 nM | 
16 | COc1ccc(CCC(CCc2ccccc2)CN2CC3CCCC(C2=O)N3C(=O)C(=O)c2cc(OC)c(OC)c(OC)c2)cc1OC (stereo not shown) [Example 26, 9-(3,4,5-Trimethoxyphenyl)oxalyl-3,9-diaza-3-[4-(3,4-dimethoxyphenyl)-2-(2-phenylethyl)butyl]-bicyclo[3.3.1]nonan-2-one] |  |  | Ki (Table 2): 51 nM
17 | COc1cc(C(=O)C(=O)N2C3CCC2C(=O)N(CCCO)C3)cc(OC)c1OC [Example 42, (1S,5R)-8-(3,4,5-trimethoxyphenyl)oxalyl-3,8-diaza-3-(3-hydroxypropyl)bicyclo[3.2.1]octan-2-one] | 19% |  | 
18 | COc1ccc(CCCC(CCCc2ccccc2)N2CC3CCC(C2=O)N3C(=O)C(=O)c2cc(OC)c(OC)c(OC)c2)cc1OC [Example 9, (1S,5R)-8-(3,4,5-Trimethoxyphenyl)oxalyl-3,8-diaza-3-[4-(3,4-dimethoxyphenyl)-1-(3-phenylpropyl)butyl]bicyclo[3.2.1]octan-2-one] |  |  | inhibition at 1 µM [1]: 1%
19 | COc1cc(C(=O)C(=O)N2C3CCC2C(=O)N(CCCCc2ccccc2)C3)cc(OC)c1OC [Example 7, (1S,5R)-8-(3,4,5-Trimethoxyphenyl)oxalyl-3,8-diaza-3-(4-phenylbutyl)bicyclo[3.2.1]octan-2-one] | 6% |  | 
20 | COc1cc(C(=O)C(=O)N2C3CCCC2C(=O)N(CCCc2ccccc2)C3)cc(OC)c1OC (stereo not shown) [Example 18, 9-(3,4,5-Trimethoxyphenyl)oxalyl-3,9-diaza-3-(3-phenylpropyl)bicyclo[3.3.1]nonan-2-one] |  | 60 nM | 
21 | COc1cc(C(F)(F)C(=O)N2C3CCC2C(=O)N(CCCCc2ccccc2)C3)cc(OC)c1OC [Example 32, (1S,5R)-8-(3,4,5-Trimethoxyphenyl)difluoroacetyl-3,8-diaza-3-(4-phenylbutyl)bicyclo-[3.2.1]octan-2-one] | 4% |  | 
22 | CCC(C)(C)C(=O)C(=O)N1C2CCCC1C(=O)N(CCCc1cc(OC)c(OC)c(OC)c1)C2 (stereo not shown) [Example 41, 1-{3,9-Diaza-2-oxo-3-[3-(3,4,5-trimethoxyphenyl)propyl]bicyclo[3.3.1]non-9-yl}-3,3-dimethylpentane-1,2-dione] | 4% |  | 
23 | COc1ccc(CCCCN2CC3CCCC(C2=O)N3C(=O)C(F)(F)c2cc(OC)c(OC)c(OC)c2)cc1OC (stereo not shown) [Example 36, 9-(3,4,5-Trimethoxyphenyl)difluoroacetyl-3,9-diaza-3-[4-(3,4-dimethoxyphenyl)butyl]bicyclo[3.3.1]-nonan-2-one] |  | 160 nM | inhibition at 1 µM: 61%
24 | COc1ccc(CCN2CC3CCC(C2=O)N3C(=O)C(=O)c2cc(OC)c(OC)c(OC)c2)cc1OC [Example 2, (1S,5R)-8-(3,4,5-Trimethoxyphenyl)oxalyl-3,8-diaza-3-[2-(3,4-dimethoxyphenyl)ethyl]bicyclo[3.2.1]octan-2-one] | 3% |  | 
25 | COc1ccc(CCCC(CCCc2ccccc2)N2CC3CCCC(C2=O)N3C(=O)C(=O)c2cc(OC)c(OC)c(OC)c2)cc1OC (stereo not shown) [Example 21, 9-(3,4,5-Trimethoxyphenyl)oxalyl-3,9-diaza-3-[4-(3,4-dimethoxyphenyl)-1-(3-phenylpropyl)butyl]bicyclo[3.3.1]nonan-2-one] |  |  | inhibition at 1 µM [1]: 1%
26 | COc1cc(CCCC(CCCc2ccccc2)CN2CC3CCC(C2=O)N3C(=O)C(F)(F)c2cc(OC)c(OC)c(OC)c2)cc(OC)c1OC [Example 34, (1S,5R)-8-(3,4,5-Trimethoxyphenyl)difluoroacetyl-3,8-diaza-3-[2-(3-phenylpropyl)-5-(3,4,5-trimethoxyphenyl)pentyl]bicyclo[3.2.1]octan-2-one] |  |  | inhibition at 1 µM [1]: 11%
27 | COc1ccc(CCCCN2CC3CCC(C2=O)N3C(=O)C(F)(F)c2cc(OC)c(OC)c(OC)c2)cc1OC [Example 29, (1S,5R)-8-(3,4,5-Trimethoxyphenyl)difluoroacetyl-3,8-diaza-3-[4-(3,4-dimethoxyphenyl)butyl]bicyclo[3.2.1]octan-2-one] | 8% |  | 
28 | CCC(C)(C)C(=O)C(=O)N1C2CCC1C(=O)N(CCCc1cc(OC)c(OC)c(OC)c1)C2 (stereo not shown) [Example 39, 1-{3,8-Diaza-2-oxo-3-[3-(3,4,5-trimethoxyphenyl)propyl]bicyclo[3.2.1]oct-8-yl}-3,3-dimethylpentane-1,2-dione] | 4% |  | 
29 | COc1cc(CCCC(CCCc2ccccc2)CN2CC3CCCC(C2=O)N3C(=O)C(=O)c2cc(OC)c(OC)c(OC)c2)cc(OC)c1OC (stereo not shown) [Example 23, 9-(3,4,5-Trimethoxyphenyl)oxalyl-3,9-diaza-3-[2-(3-phenylpropyl)-5-(3,4,5-trimethoxyphenyl)pentyl]bicyclo[3.3.1]-nonan-2-one] |  |  | inhibition at 1 µM [1]: 81%; Ki (Table 2): 44 nM
